Test results reported in US20170106058A1, “PHARMACEUTICAL COMPOSITION AGAINST CHRONIC BACTERIAL INFECTIONS” (Lysando AG, priority 2014, published 2017).

Key:
[1] = system: P. aeruginosa PA14 persisters; assay: Persister killing assay, isolated persister fraction of P. aeruginosa PA14; assay type: cell-based
Method: (§1) Persister killing—Planktonic persister cells were isolated from a stationary phase culture as described e.g. in Chen et al., 2011(Chen X, Zhang M, Zhou C, Kallenbach N R, Ren D. 2011. Control of bacterial persister cells by Trp/Arg-containing antimicrobial peptides. Appl Environ Microbiol 77:4878-4885.). Briefly, an overnight culture of P. aeruginosa PA14 and PA1255 (a cystic fibrosis isolate) was inoculated each in 50 ml 1:20 Trypticase Soy Broth (TSB). After 48 h of growth at 37° C., the culture was treated with ofloxacin at a final concentration of 10 μg/ml (5× MIC) for 5 hours at 37° C., while shaking at 200 rpm. The persister cells surviving this antibiotic treatment were isolated by centrifugation (5250 g, 15 min, 4° C.) and the cell pellet was washed twice with 20 mM HEPES buffer. Prior to treatment, cells were resuspended in the same volume of 20 mM HEPES buffer. A persister killing assay was performed as described e.g. by De Groote et al., 2009 (De Groote V N, Verstraeten N, Fauvart M, Kint C I, Verbeeck A M, Beullens S, Cornelis P, Michiels J. 2009. Novel persistence genes in Pseudomonas aeruginosa identified by high-throughput screening. FEMS Microbiol Lett 297:73-79). Briefly, a volume of 100 μl of the isolated persister fraction was mixed with polypeptides comprising peptidoglycan hydrolase or ciprofloxacin (final concentrations of 10× or 30× MIC against the respective strains), in the absence or presence of 0.5 mM EDTA-Na2 (final concentration) up to a final volume of 200 μl. Control treatments with 20 mM HEPES buffer, 0.5 mM EDTA or ofloxacin (30×and 10× MIC) were performed in parallel. The mixtures were shaken (200 rpm) for lh at 37° C. Treated persisters where washed twice with 20 mM HEPES buffer and appropriate dilutions were plated on TSB agar plates and incubated at 37° C. The number of persisters was determined after 72 h incubation to allow complete resuscitation of all surviving persisters. Each experiment was independently repeated at least 3 times.
(§2) Planktonic persister cells were isolated from a stationary-phase culture as described previously (Liebens V, Defraine V, Van der Leyden A, De Groote V N, Fierro C, Beullens S, Verstraeten N, Kint C, Jans A, Frangipani E, Visa P, Marchal K, Versées W, Fauvart M, Michiels J. 2014. A putative de-N-acetylase of the PIG-L superfamily affects fluoroquinolone tolerance in Pseudomonas aeruginosa. Pathogen. Dis. 71:39-54.) with minor modifications. An overnight culture of P. aeruginosa PA14, PAl255 (a cystic fibrosis isolate), Escherichia coil UTI-89 (isolate from chronic urinary tract infection) and Acinetobacter baumannii RUH134 (reference strain for global clone 2) was diluted 100×in 50 ml 1:20 Trypticase soy broth (TSB). After overnight growth at 37° C., the cultures were treated with either 10 μg/ml ofloxacin (P. aeruginosa strains), 200 μg/ml tobramycin (A. baumannii) or 200 μg/ml amikacin (E. coli) for 5 h at 37° C., while shaking at 200 rpm. The antibiotic concentrations were chosen to allow only persister cells to survive, based on previous time-kill curves. The persister fractions were isolated by centrifugation (5,250× g for 15 min at 4° C.), and the cell pellet was washed twice with 20 mM HEPES (pH 7.4). Prior to treatment, the cells were resuspended in a ten-fold reduced volume of 20 mM HEPES (pH 7.4) to concentrate the persisters.
A persister killing assay was performed as described previously (Liebens et al., 2014), with minor modifications. […]

[2] = system: P. aeruginosa PAl255 persisters; assay: Persister killing assay, isolated persister fraction of P. aeruginosa PAl255 (cystic fibrosis isolate); assay type: cell-based
Method: as §1, with “Briefly, a volume of 100 μl of the isolated persister fraction was mixed with polypeptides comprising peptidoglycan hydrolase or ciprofloxacin (final concentrations of 10× or 30× MIC against the respective strains), in the absence or presence of 0.5 mM EDTA-Na2 (final concentration) up to a final volume of 200 μl. Control treatments with 20 mM HEPES buffer, 0.5 mM EDTA or ofloxacin (30×and 10× MIC) were performed in parallel. The mixtures were shaken (200 rpm) for lh at 37° C. Treated persisters where washed twice with 20 mM HEPES buffer and appropriate dilutions were plated on TSB agar plates and incubated at 37° C.” left out, “Each experiment was independently repeated at least 3 times.” left out

[3] = system: E. coli UTI-89 persisters; assay: Persister killing assay, isolated persister fraction of E. coli UTI-89 (chronic urinary tract infection isolate); assay type: cell-based, Escherichia coli; settings: 10× MIC
Description: as §2
A persister killing assay was performed as described previously (Liebens et al., 2014), with minor modifications. A volume of 100 μl of the isolated persister fraction was mixed with either the polypeptide according to SEQ ID NO: 124, 125, 126 or ciprofloxacin (final concentrations of 10× or 30× MIC against the respective strains), in the absence or presence of 0.5 mM EDTA-Na2 (final concentration) up to a final volume of 200 μl. Control treatments with 20 mM HEPES (pH 7.4), 0.5 mM EDTA, or ofloxacin/tobramycin/amikacin (30× and 10× MIC) were performed in parallel. […] The number of persisters was determined after 72 h of incubation to allow for complete resuscitation of all surviving persisters.

[4] = 10× and 30× MIC, with and without 0.5 mM EDTA

O=C([O-])CN(CCN(CC(=O)[O-])CC(=O)O)CC(=O)O.[Na+].[Na+] [EDTA, reference compound]
bactericidal activity against isolated persisters ([1]; 0.5 mM EDTA alone): did not affect the persisters | bactericidal activity against isolated persisters ([2]; 0.5 mM EDTA alone): did not affect the persisters

O=C(O)c1cn(C2CC2)c2cc(N3CCNCC3)c(F)cc2c1=O [ciprofloxacin, reference compound]
killing of persisters ([3]; with and without 0.5 mM EDTA): did not completely kill persisters | bactericidal activity against isolated persisters [1, 4]: did not affect the persisters | bactericidal activity against isolated persisters [2, 4]: did not affect the persisters

B1: SEQ ID NO: 124: polypeptide comprising a fusion of Sarcotoxin IA (SEQ ID NO: 48) and KZ144 (SEQ ID NO: 11), active against vegetative cells of E. coli (protein)
chain: MKFFRKLKKSVKKRAKEFFKKPRVIGVSIPFGSKVLRKGDRGDEVCQLQTLLNLCGYDVGKPDGIFGNNTFNQVVKFQKDNCLDSDGIVGKNTWAELFSKYSPPIPYKTIPMPTANKSRAAATPVMNAVENATGVRSQLLLTFASIESAFDYEIKAKTSSATGWFQFLTGTWKTMIENYGMKYGVLTDPTGALRKDPRISALMGAELIKENMNILRPVLKREPTDTDLYLAHFFGPGAARRFLTTGQNELAATHFPKEAQANPSIFYNKDGSPKTIQEVYNLMDGKVAAHRKLEHHHHHH
modifications: SarcotoxinIA-KZ144his
killing of persisters ([3]; with 0.5 mM EDTA): completely eradicated | killing of persisters ([3]; without 0.5 mM EDTA): did not completely kill persisters | effect on persisters ([1]; 30× MIC, with 0.5 mM EDTA): complete eradication | reduction of the number of persisters ([1]; 30× MIC, with 0.5 mM EDTA): approximately 5 log units | reduction of the number of persisters in comparison to the 0.5 mM EDTA control ([1]; 30× MIC, without EDTA): approximately 2.3 log units
